Results published in patent publication US10323019B2, “Pyrazolylaminobenzimidazole derivatives as JAK inhibitors” (Eli Lilly and Company, priority 2016, dated 2019).

Key:
JAK2 = JAK2 (Homo sapiens (Human), UniProt O60674); experiment: JAK LanthaScreen Kinase Assay (TR-FRET), JAK2 in vitro enzyme assay; assay type: biochemical; conditions: 5 μM ATP
Protocol: (§1) The JAK LanthaScreen™ Kinase Assay (Invitrogen) is used to determine the ability of test compounds to inhibit JAK1, JAK2, and JAK3 kinase activity. These are TR-FRET assay formats that use long-lifetime terbium labeled antibody as the donor species and GFP-STAT1 as the acceptor species. Use the TR-FRET ratio to monitor JAK kinase activity where an increase in phosphorylation of the GFP-STAT1 results in an increase in the TR-FRET ratio. Perform the kinase reaction using a 12.5 μl reaction volume in shallow black 384-well Proxiplate®. Add reagents to obtain final reaction conditions of […], 1.76 mM Triton X-100, ATP (20.0 μM for JAK1 and JAK3 or 5 μM for JAK2) enzyme assays, 10.0 mM MgCl2, 1 mM EGTA and 0.01% Brij-35, […] GFP-STAT1, 14 nM JAK1 enzyme for JAK1, 1.0 nM for JAK2 or 2.5 nM for JAK3 enzyme assays, and 4% DMSO and serial dilutions of test compound (diluted 1:3 from 20,000 to 1 nM). Following ATP/GFP-STAT1 addition, centrifuge the assay plates for 1 minute at 1000 revolutions per minute (RPM). Allow the plates to incubate at RT for 60 minutes and then add 12.5 μl of a stopping buffer containing 20 mM EDTA, 2 nM Terbium-anti-phosphorylated Signal Transducers and Activators of Transcription [phosphorylation Tyrosine 701 amino acid] […] Use ACTIVITYBASE® 4.0 to fit the percent inhibition and ten-point compound concentration data to a four-parameter logistic equation.

JAK3 = JAK3 (Homo sapiens (Human), UniProt P52333); experiment: JAK LanthaScreen Kinase Assay (TR-FRET), JAK3 in vitro enzyme assay; assay type: biochemical; conditions: 20.0 μM ATP
Protocol: as §1

JAK1 [1] = target: T1, JAK1 (Homo sapiens (Human), UniProt P23458); experiment: AlphaScreen SureFire p-STAT3-(p-Tyr705)-IL6-TF-1-JAK1 cell-based assay; conditions: TF-1 cells, IL6 30 ng/mL, pSTAT3
Protocol: AlphaScreen SureFire Protocol p-STAT3-(p-Tyr705)-IL6-TF-1-JAK1 Cell-Based Assay
The JAK1 cell based assay described below is used to determine the JAK1 cellular potency of test compounds.
Cell preparation: Starve TF-1 cells in DMEM medium with 0.5% […] and 1× Pen/Strep at 37° C. Plate 100K cells per well in BD 96 well black plates with clear bottoms. Maintain the plates at RT for 30-60 minutes before incubating overnight at 37° C., and 5% CO2. Count cells using Vi-Cell counter, using a cell suspension at […] and plated 100 μL/well in […] Biocoat plates (Catalog #354640).
Test compound preparation and treatment: Prepare compounds at 1:3 serial dilutions in DMSO and further dilute into the medium. Test compounds in a range of 10 point concentrations from 20,000 to 1 nM. Add diluted compound to corresponding cell plates. Incubate the plates at 37° C. for 20 min. Add IL6 solution at the final concentration 30 ng/mL to corresponding cell plates and continue to incubate at 37° C. for 30 min. Remove media and add 50 μL 1× lysis buffer to each well.
pSTAT3 detection: Perform the following steps sequentially: make acceptor mix (activation buffer/reaction buffer/acceptor beads); transfer 4 μL lysate from 96 well plates to 384 well-Proxiplates; add 5 μL acceptor mix to 384 proxiplate plate(s) and seal plates with aluminum seal; shake 1-2 minutes on plate shaker; incubate plate at RT for 2 hr with gentle shaking; make donor mix (donor beads in dilution buffer); add 2 μL donor mix to assay plates; seal plates with aluminum seal; shake 1-2 minutes on plate shaker; incubate at RT for 2 hr with gentle shaking; read plate with Envision; protocol AlphaScreen Surefire 384.

JAK1 [2] = target: T1, JAK1; experiment: Human whole blood assay: pSTAT3 (JAK1) in lymphocytes, IL6 stimulated; assay type: cell-based; conditions: IL6, pSTAT3 in CD4+ lymphocytes
From the text: Human Whole Blood Assays: Determination of pSTAT3 (JAK1) and pSTAT5 (JAK2) in Lymphocytes and Monocytes
Human whole blood (HWB) assays were developed and validated to determine the JAK1 and JAK2 selectivity of test compounds.
Dilute the test compounds, 10 points, (1:3) in DMSO 100% and a step down in PBS+0.1% BSA. Use Tofacitinib as a reference compound in each plate, as well as a maximum signal (stimulated wells) and a minimum signal (no stimulated wells) in order to normalize data. Obtain a pool of HWB from 4 different healthy donors. Plate the blood in a 96 well plate using a Tecan Evo 96w and incubate with test compounds for 1 h at RT. After this time of incubation, stimulate HWB with both IL6 (206-IL, R&D System) and GM-CSF (PHC2015, Life Technologies) for 15 more minutes. Add a viability dye (65-0865, eBiosicience) (1:1000) using a Tecan Evo 96w (5×mix).
The final concentrations in the assay are the following: 100 (μM for compounds, 50 μM for Tofacitinib, 0.1 μg/mL IL6, 0.038 μg/mL GM-CSF and 1% DMSO. Lyse and fix HWB using a Lyse/fix buffer (558049, Becton Dickinson) by adding 900 μL of lysis buffer using Tecan Evo 96w (mix 10× high speed). Incubate HWB in bath at 37° C. for 10 minutes. Centrifuge HWB at 500 G, 8 min and discard supernatant. Add cold MeOH using a Tecan Exo 96w in order to permeabilize cells. Incubate blood cells on ice during 30 min. After this, wash cells 2× using Staining buffer (554656, Becton Dickinson), spin at 3000 rpm, 2 min. discard supernatant, and add the following antibodies: Anti-Human CD4 PE, 1:100 (12-0048, eBioscience), Anti-Human CD33 eFluor® 450, 1:50 (48-0337, eBioscience), Phospho-STAT5 (Tyr694) (C71E5) Rabbit mAb, 1:100 (Alexa Fluor® 488 Conjugate) (3939, Cell Signaling) and Phospho-STAT3 (Tyr705) (D3A7) XP™ Rabbit mAb 1:200, (Alexa Fluor® 647 Conjugate) (4324, Cell Signaling). Incubate the antibodies for 1 h in dark at RT, then wash cells 2× and read on Cytometer Macsquant (Miltenyi Biotec). Gate the data on CD4+ (lymphocytes) and CD4Low CD33Hi (monocytes), to measure the fluorescence intensity from cells expressing pSTAT3 and pSTAT5, respectively. Analyze the data using FlowJo v 10 and then normalize the median of fluorescence versus maximum and minimum signal to determine the IC50s. Use Graph Pad Prism 5™ to represent the dose response curves.

T1 sequence (P23458 whole entry): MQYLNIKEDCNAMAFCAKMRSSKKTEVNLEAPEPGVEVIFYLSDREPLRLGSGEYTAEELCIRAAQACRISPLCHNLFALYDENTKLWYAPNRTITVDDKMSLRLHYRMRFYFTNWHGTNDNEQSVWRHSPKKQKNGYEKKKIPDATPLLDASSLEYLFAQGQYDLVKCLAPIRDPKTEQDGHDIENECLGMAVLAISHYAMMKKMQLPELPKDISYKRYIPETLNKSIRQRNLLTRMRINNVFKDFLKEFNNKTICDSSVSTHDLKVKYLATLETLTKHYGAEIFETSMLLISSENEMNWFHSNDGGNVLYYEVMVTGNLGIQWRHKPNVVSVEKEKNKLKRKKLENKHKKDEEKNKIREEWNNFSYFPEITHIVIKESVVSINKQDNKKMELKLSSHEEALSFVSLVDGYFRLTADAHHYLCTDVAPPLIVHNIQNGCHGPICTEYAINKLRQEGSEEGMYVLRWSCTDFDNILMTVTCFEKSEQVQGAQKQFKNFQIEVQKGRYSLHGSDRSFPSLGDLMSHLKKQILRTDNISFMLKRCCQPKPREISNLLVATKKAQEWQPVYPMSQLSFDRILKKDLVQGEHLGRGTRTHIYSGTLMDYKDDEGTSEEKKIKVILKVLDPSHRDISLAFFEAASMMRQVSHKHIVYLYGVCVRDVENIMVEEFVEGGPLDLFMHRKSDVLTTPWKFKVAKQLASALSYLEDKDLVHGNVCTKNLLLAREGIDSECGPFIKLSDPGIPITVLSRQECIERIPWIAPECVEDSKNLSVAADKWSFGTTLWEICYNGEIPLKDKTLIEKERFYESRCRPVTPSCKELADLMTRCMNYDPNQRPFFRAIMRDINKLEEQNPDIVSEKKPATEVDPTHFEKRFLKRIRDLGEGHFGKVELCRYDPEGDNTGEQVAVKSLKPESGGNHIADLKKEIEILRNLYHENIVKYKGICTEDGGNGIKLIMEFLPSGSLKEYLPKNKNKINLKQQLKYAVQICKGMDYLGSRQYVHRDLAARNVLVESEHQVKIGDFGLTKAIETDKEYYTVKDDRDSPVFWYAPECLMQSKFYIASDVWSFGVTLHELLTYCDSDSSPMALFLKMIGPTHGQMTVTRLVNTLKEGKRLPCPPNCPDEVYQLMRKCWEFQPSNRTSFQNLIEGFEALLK
JAK3, sequence (P52333 whole entry): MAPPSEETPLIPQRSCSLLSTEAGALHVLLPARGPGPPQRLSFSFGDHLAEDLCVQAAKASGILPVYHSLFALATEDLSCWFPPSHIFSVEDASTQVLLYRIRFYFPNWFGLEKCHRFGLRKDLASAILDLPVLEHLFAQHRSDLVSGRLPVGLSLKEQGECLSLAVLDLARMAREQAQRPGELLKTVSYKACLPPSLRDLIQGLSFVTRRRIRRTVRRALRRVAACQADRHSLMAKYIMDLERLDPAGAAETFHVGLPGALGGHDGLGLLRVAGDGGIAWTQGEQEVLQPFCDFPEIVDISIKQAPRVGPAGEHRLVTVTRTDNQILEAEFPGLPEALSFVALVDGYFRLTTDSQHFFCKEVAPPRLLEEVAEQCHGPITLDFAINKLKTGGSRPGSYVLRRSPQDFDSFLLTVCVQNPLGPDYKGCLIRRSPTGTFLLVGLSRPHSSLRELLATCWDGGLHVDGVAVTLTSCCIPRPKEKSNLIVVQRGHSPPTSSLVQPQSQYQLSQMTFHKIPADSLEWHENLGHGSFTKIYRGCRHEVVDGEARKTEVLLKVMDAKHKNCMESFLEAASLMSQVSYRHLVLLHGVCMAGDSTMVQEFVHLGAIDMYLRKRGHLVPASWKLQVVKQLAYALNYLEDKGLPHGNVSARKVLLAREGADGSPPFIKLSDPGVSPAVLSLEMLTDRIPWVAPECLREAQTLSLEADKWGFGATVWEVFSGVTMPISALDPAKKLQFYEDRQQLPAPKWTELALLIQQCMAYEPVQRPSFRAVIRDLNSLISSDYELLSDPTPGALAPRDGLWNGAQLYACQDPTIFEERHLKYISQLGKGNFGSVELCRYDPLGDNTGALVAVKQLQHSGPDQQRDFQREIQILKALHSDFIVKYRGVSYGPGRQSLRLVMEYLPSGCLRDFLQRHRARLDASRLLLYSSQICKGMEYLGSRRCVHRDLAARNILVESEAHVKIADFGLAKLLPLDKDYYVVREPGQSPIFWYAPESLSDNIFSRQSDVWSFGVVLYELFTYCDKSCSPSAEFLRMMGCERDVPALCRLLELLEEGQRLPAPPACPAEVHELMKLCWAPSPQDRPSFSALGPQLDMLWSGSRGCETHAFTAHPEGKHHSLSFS
JAK2, sequence (O60674 whole entry): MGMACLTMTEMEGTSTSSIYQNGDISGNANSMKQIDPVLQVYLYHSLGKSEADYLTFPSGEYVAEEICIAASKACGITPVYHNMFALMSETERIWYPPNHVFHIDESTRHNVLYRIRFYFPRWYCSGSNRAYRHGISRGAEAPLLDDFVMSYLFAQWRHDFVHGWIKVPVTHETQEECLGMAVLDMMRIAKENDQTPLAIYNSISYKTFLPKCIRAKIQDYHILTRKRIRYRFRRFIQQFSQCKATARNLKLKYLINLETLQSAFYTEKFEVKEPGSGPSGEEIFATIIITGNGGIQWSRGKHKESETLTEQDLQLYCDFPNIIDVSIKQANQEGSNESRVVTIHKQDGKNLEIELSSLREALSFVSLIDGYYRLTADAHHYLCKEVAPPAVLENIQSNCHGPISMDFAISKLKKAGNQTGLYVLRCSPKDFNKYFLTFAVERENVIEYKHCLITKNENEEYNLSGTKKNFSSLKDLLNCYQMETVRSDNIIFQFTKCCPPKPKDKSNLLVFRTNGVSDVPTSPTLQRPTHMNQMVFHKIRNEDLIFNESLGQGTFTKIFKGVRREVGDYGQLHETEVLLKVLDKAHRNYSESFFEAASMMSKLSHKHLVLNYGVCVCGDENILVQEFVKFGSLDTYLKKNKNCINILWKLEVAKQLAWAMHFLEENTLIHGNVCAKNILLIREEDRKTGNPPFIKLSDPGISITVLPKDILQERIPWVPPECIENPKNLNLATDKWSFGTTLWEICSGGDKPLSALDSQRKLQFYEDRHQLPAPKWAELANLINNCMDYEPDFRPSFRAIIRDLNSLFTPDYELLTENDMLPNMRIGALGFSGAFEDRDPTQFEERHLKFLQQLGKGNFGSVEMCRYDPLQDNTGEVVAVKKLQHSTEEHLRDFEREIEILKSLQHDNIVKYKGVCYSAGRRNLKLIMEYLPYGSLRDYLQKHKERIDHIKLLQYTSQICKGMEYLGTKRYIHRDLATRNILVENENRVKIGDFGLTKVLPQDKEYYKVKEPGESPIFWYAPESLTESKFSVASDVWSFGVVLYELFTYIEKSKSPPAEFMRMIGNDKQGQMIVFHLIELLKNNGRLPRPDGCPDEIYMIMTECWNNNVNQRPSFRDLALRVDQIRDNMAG

COc1cc(Nc2cc(O[C@H]3CC[C@@H](NC[C@@H](O)C(F)(F)F)CC3)cc3c2ncn3C)nn1C [Example 6, (2R)-1,1,1-Trifluoro-3-{[cis-4-({4-[(5-methoxy-1-methyl-1H-pyrazol-3-yl)amino]-1-methyl-1H-benzimidazol-6-yl}oxy)cyclohexyl]amino}propan-2-ol]
IC50 (JAK2): 0.768 ± 0.22 µM | IC50 (JAK3): 2.54 ± 0.51 µM | IC50 (JAK1 [1]): 0.000168 ± 9e-05 µM | IC50 (JAK1 [2]): 3.65 ± 0.79 µM
